Assay results published in patent US8258175B2, “Isoindolin-1-one derivatives” (Cancer Research Technology Limited, priority 2004, dated 2012).

target: T1, MDM2-p53 interaction (Homo sapiens, UniProt Q00987); test: ELISA assay of MDM2-p53 complex formation (MDM2 binding to immobilised IP3 p53-derived peptide); details: n=3 independent determinations; 5% DMSO; interpolated from three standard concentrations
T1 construct: made in house; host or cells: in vitro translation (cell-free)
Protocol: Streptavidin-coated 96-well plates are used to immobilise a biotin-tagged IP3 p53-derived peptide ([…]). This is a peptide analogue derived from the p53 binding site for MDM2 ([…]). […] Aliquots of MDM2 generated by in vitro translation are pre-incubated for 20 minutes at room temperature (i.e. 20-25° C.) with test compounds and controls, before transfer into the IP3-coated 96-well plates. Following a further incubation period of 90 minutes at 4° C., the plates are washed to remove unbound MDM2 and the residual bound MDM2 is detected using a primary monoclonal antibody (MDM2 Ab-1, clone IF2, Oncogene Research Products) and HRP-conjugated secondary antibody (Goat anti-mouse, Dako PO447). The HRP (horseradish peroxidase) is measured by a chemiluminescence reaction using standard reagents (Amersham Pharmacia™ RPN 2106) and an automatic injection 96-well plate illuminometer (EG & G Berthold Microplate LB 96V).
Compound NU8231 is currently included as a standard “lead compound” positive control. […] The AP peptide is included as a positive control for biological evaluation of the isoindolinones in the cell free binding assays.
All compounds are dissolved in DMSO and tested at three standard concentrations (initially 20 μM, 100 μM and 500 μM) in the presence of a fixed final concentration of 5% DMSO. The percentage inhibition of complex formation is expressed relative to a DMSO only control and an IC50, defined as the concentration required for 50% inhibition of MDM2-p53 complex formation, determined by interpolation.

T1 sequence (Q00987 whole entry): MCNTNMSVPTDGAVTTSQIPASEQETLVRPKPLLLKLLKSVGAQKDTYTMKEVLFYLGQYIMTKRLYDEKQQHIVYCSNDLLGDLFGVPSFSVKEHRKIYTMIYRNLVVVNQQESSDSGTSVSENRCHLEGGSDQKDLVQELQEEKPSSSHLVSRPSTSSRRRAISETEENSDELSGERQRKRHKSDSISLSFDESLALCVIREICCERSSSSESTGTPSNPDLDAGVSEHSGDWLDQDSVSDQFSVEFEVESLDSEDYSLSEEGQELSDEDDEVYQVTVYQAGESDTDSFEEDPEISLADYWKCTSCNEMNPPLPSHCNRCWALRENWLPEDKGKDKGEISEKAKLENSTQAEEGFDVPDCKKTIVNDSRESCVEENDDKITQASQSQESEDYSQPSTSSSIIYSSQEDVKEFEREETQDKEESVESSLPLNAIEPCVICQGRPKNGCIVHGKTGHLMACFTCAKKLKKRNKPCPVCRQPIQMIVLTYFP

SMILES | IC50
CCCN1C(=O)c2ccccc2C1(OCCCO)c1ccccc1 (stereo not drawn) [NU8033, 3-(3-Hydroxy-propoxy)-3-phenyl-2-propyl-2,3-dihydro-1H-isoindolin-1-one] | > 500000 nM
O=C1c2ccccc2C(OCCCO)(c2ccccc2)N1Cc1ccccc1 (stereo not drawn) [NU8034, 2-Benzyl-3-(3-Hydroxy-propoxy)-3-phenyl-2,3-dihydro-1H-isoindolin-1-one] | 245000 ± 11000 nM
CC(C)(C)c1ccc(COC2(c3ccccc3)c3ccccc3C(=O)N2Cc2ccccc2)cc1 (stereo not drawn) [NU8113, 2-Benzyl-3-(4-tert-butyl-benzyloxy)-3-phenyl-2,3-dihydro-isoindolin-1-one] | 92000 ± 11000 nM
O=C1c2ccccc2C(OCCc2ccccn2)(c2ccccc2)N1Cc1ccccc1 (stereo not drawn) [NU8133, 2-Benzyl-3-phenyl-3-(2-pyridin-2-yl-ethoxy)-2,3-dihydro-isoindolin-1-one] | 206000 ± 130000 nM
CC(C)COc1ccc(C2(NC(=O)c3ccccc3)c3ccccc3C(=O)N2CC2CCCCC2)cc1 (stereo not drawn) [NU8200, N-[2-Cyclohexylmethyl-1-(4-isobutoxyphenyl)-3-oxo-2,3-dihydro-1H-isoindolin-1-yl]benzamide] | 123000 ± 30000 nM
CCOc1ccc(C2(NC(=O)c3ccccc3)c3ccccc3C(=O)N2CC2CCCCC2)cc1 (stereo not drawn) [NU8201, N-[2-Cyclohexylmethyl 1-(4-ethoxyphenyl)-3-oxo-2,3-dihydro-1H-isoindolin-1-yl]benzamide] | 209000 ± 28000 nM
CSc1ccc(C2(NC(=O)c3ccccc3)c3ccccc3C(=O)N2CC2CCCCC2)cc1 (stereo not drawn) [NU8202, N-[2-Cyclohexylmethyl-1-(4-methylsulfanylphenyl)-3-oxo-2,3-dihydro-1H-isoindolin-1-yl]benzamide] | 82000 ± 16000 nM
O=C1c2ccccc2C(OCCNc2ccccc2)(c2ccccc2)N1Cc1ccccc1 (stereo not drawn) [NU8204, 2-Benzyl-3-phenyl-3-(2-phenylaminoethoxy)-2,3-dihydroisoindolin-1-one] | 116000 ± 20000 nM
COc1cc(COC2(c3ccccc3)c3ccccc3C(=O)N2Cc2ccccc2)cc(OC)c1O (stereo not drawn) [NU8205, 2-Benzyl-3-(4-hydroxy-3,5-dimethoxybenzyloxy)-3-phenyl-2,3-dihydro-isoindolin-1-one] | 17900 ± 300 nM
CCCOC1(c2ccccc2)c2ccccc2C(=O)N1CCO (stereo not drawn) [NU8206, 2-(2-Hydroxyethyl)-3-phenyl-3-propoxy-2,3-dihydroisoindolin-1-one] | > 500000 nM
O=C1c2ccccc2C(OCCN2CCNCC2)(c2ccccc2)N1Cc1ccccc1 (stereo not drawn) [NU8211, 2-Benzyl-3-phenyl-3-(2-piperazin-1-ylethoxy)-2,3-dihydroisoindolin-1-one] | 315000 ± 72000 nM
CC(=O)NCCN1C(=O)c2ccccc2C1(OCc1ccc(C(C)(C)C)cc1)c1ccccc1 (stereo not drawn) [NU8213, N-{2-[1-(4-t-Butyl-benzyloxy)-3-oxo-1-phenyl-1,3-dihydro-isoindolin-2-yl]-ethyl}-acetamide] | 14400 ± 300 nM
CC(C)(C)c1ccc(COC2(c3ccccc3)c3ccccc3C(=O)N2CCc2cnc[nH]2)cc1 (stereo not drawn) [NU8214, 3-(4-t-Butylbenzyloxy)-2-[2-(3H-imidazol-4-yl)-ethyl]-3-phenyl-2,3-dihydroisoindolin-1-one] | 214000 ± 56000 nM
C=C(C)C(=O)OCCN1C(=O)c2ccccc2C1(NC(CO)C(O)c1ccccc1)c1ccccc1 (stereo not drawn) [NU8216, 2-Methylacrylic acid 2-[1-(2-hydroxy-1-hydroxymethyl-2-phenylethylamino)-3-oxo-1-phenyl-1,3-dihydroisoindolin-2-yl]ethyl ester] | 103000 ± 43000 nM
CCCN1C(=O)c2ccccc2C1(OCc1ccc(C(C)(C)C)cc1)c1ccc(Cl)cc1 (stereo not drawn) [NU8221, 3-(4-tert-Butyl-benzyloxy)-3-(4-chlorophenyl)-2-propyl-2,3-dihydroisoindolin-1-one] | 187000 ± 38000 nM
COc1ccc(COC2(c3ccccc3)c3ccccc3C(=O)N2Cc2ccccc2)cc1 (stereo not drawn) [NU8226, 2-Benzyl-3-(4-methoxybenzyloxy)-3-phenyl-2,3-dihydroisoindolin-1-one] | 456000 ± 44000 nM
C=CCOc1c(OC)cc(COC2(c3ccc(Cl)cc3)c3ccccc3C(=O)N2CCC)cc1OC (stereo not drawn) [NU8232, 3-(4-Allyloxy-3,5-dimethoxybenzyloxy)-3-(4-chlorophenyl)-2-propyl-2,3-dihydroisoindolin-1-one] | 264000 ± 38000 nM
CCCN1C(=O)c2ccccc2C1(OCc1ccc(C(C)(C)C)cc1)c1ccc(OCOCC[Si](C)(C)C)cc1 (stereo not drawn) [NU8233, 3-(4-tert-Butylbenzyloxy)-2-propyl-3-[4-(2-trimethylsilanylethoxymethoxy)-phenyl]-2,3-dihydroisoindolin-1-one] | 464000 ± 31000 nM

SMILES | IC50
CCCN1C(=O)c2ccccc2C1(OCCCO)c1ccc(OCOCC[Si](C)(C)C)cc1 (stereo not drawn) [NU8234, 3-(3-Hydroxypropoxy)-2-propyl-3-[4-(2-trimethylsilanylethoxymethoxy)-phenyl]-2,3-dihydroisoindolin-1-one] | 476000 ± 24000 nM
CCCN1C(=O)c2ccccc2C1(OCCc1ccccn1)c1ccc(OCOCC[Si](C)(C)C)cc1 (stereo not drawn) [NU8235, 2-Propyl-3-(2-pyridin-2-yl-ethoxy)-3-[4-(2-trimethylsilanylethoxymethoxy)-phenyl]-2,3-dihydroisoindolin-1-one] | 312000 ± 22000 nM
CCCN1C(=O)c2ccccc2C1(OCc1cc(OC)c(O)c(OC)c1)c1ccc(OCOCC[Si](C)(C)C)cc1 (stereo not drawn) [NU8236, 3-(4-Hydroxy-3,5-dimethoxybenzyloxy)-2-propyl-3-[4-(2-trimethylsilanylethoxy-methoxy)-phenyl]-2,3-dihydroisoindolin-1-one] | 118000 ± 24000 nM
CCCN1C(=O)c2ccccc2C1(OCc1ccccc1)c1ccc(Cl)cc1 (stereo not drawn) [NU8237, 3-Benzyloxy-3-(4-chlorophenyl)-2-propyl-2,3-dihydroisoindolin-1-one] | 409000 ± 43000 nM
COc1cc(COC2(c3ccc(OCOCC[Si](C)(C)C)cc3)c3ccccc3C(=O)N2Cc2ccccc2)cc(OC)c1O (stereo not drawn) [NU8238, 2-Benzyl-3-(4-hydroxy-3,5-dimethoxybenzyloxy)-3-[4-(2-trimethylsilanylethoxy-methoxy)phenyl]-2,3-dihydroisoindolin-1-one] | 257000 ± 34000 nM
C[Si](C)(C)CCOCOc1ccc(C2(O)c3ccccc3C(=O)N2Cc2ccccc2)cc1 (stereo not drawn) [NU8239, 2-Benzyl-3-hydroxy-3-[4-(2-trimethylsilanylethoxymethoxy)phenyl]-2,3-dihydroisoindol-1-one] | 366000 ± 61000 nM
C=CCOc1ccc(COC2(c3ccc(Cl)cc3)c3ccccc3C(=O)N2CCC)cc1 (stereo not drawn) [NU8240] | 304000 ± 42000 nM
C=CCOc1cc(COC2(c3ccc(Cl)cc3)c3ccccc3C(=O)N2CCC)ccc1OC (stereo not drawn) [NU8241, 3-(4-chlorophenyl)-3-(3-allyloxy-4-methoxy-benzyloxy)-2-propyl-2,3-dihydroisoindolin-1-one] | 83000 ± 5000 nM
C=CCOc1ccc(COC2(c3ccc(Cl)cc3)c3ccccc3C(=O)N2CCC)cc1OC (stereo not drawn) [NU8242, 3-(4-chlorophenyl)-3-(4-allyloxy-3-methoxy-benzyloxy)-2-propyl-2,3-dihydroisoindolin-1-one] | 272000 ± 5000 nM
CCCN1C(=O)c2ccccc2C1(OCc1ccc(O)cc1)c1ccc(Cl)cc1 (stereo not drawn) [NU8243] | 7700 ± 300 nM
CCCN1C(=O)c2ccccc2C1(OCc1ccc(OC)c(O)c1)c1ccc(Cl)cc1 (stereo not drawn) [NU8244] | 9500 ± 1900 nM
C#CCN1C(=O)c2ccccc2C1(OCc1cc(OC)c(O)c(OC)c1)c1ccc(Cl)cc1 (stereo not drawn) [NU8245, 3-(4-Chlorophenyl)-3-(4-hydroxy-3,5-dimethoxybenzyloxy)-2-prop-2-ynyl-2,3-dihydroisoindolin-1-one] | 23000 ± 4000 nM
CCCN1C(=O)c2ccccc2C1(OC1CCC(O)C1)c1ccc(Cl)cc1 (stereo not drawn) [NU8253, 3-(4-Chlorophenyl)-3-(3-hydroxycyclopentyloxy)-2-propylisoindolin-1-one] | 3000 ± 700 nM
O=C1c2ccccc2C(OC2CCC(O)C2)(c2ccc(Cl)cc2)N1CCc1ccccc1 (stereo not drawn) [NU8257, 3-(4-Chlorophenyl)-3-(3-hydroxycyclopentyloxy)-2-phenethylisoindolin-1-one] | 5500 ± 1700 nM
O=C1c2ccccc2C(O)(c2ccc(Cl)cc2)N1CC1CC1 (stereo not drawn) [NU8265, 3-(4-Chlorophenyl)-2-cyclopropylmethyl-3-hydroxy-2,3-dihydroisoindolin-1-one] | > 20000 nM
O=C1c2ccccc2C(OC2CCC(O)C2)(c2ccc(Cl)cc2)N1Cc1ccc(Cl)cc1 (stereo not drawn) [NU8274, 2-(4-Chlorobenzyl)-3-(4-chlorophenyl)-3-(3-hydroxycyclopentyloxy)isoindolin-1-one] | 2400 ± 700 nM
O=C1c2ccccc2C(OC2CCC(O)C2)(c2ccc(Cl)cc2)N1CC1CC1 (stereo not drawn) [NU8280, 3-(4-Chlorophenyl)-2-cyclopropylmethyl-3-(3-hydroxycyclopentyloxy)-2,3-dihydro-isoindolin-1-one] | 15400 ± 2300 nM

same assay, conditions: nM

SMILES | IC50
O=C1c2ccccc2C(OC2CCC(O)C2)(c2ccc(Cl)cc2)N1Cc1ccc([N+](=O)[O-])cc1 (stereo not drawn) [NU8261, 3-(4-Chlorophenyl)-3-(3-hydroxycyclopentyloxy)-2-(4-nitrobenzyl)-2,3-dihydroisoindolin-1-one] | 700 nM

test system: not given; test: not given; details: not given

SMILES | melting point
CC(C)(C)c1ccc(COC2(c3ccccc3)c3ccccc3C(=O)N2Cc2ccccc2)cc1 (stereo not drawn) [NU8113, 2-Benzyl-3-(4-tert-butyl-benzyloxy)-3-phenyl-2,3-dihydro-isoindolin-1-one] | 107 to 108 °C
CCCN1C(=O)c2ccccc2C1(OCc1ccc(C(C)(C)C)cc1)c1ccc(Cl)cc1 (stereo not drawn) [NU8221, 3-(4-tert-Butyl-benzyloxy)-3-(4-chlorophenyl)-2-propyl-2,3-dihydroisoindolin-1-one] | 116.5 to 117.6 °C
CCCN1C(=O)c2ccccc2C1(OCCc1ccccn1)c1ccccc1 (stereo not drawn) [NU8224, 3-Phenyl-2-propyl-3-(2-pyridin-2-yl-ethoxy)-2,3-dihydroisoindolin-1-one] | 122.3 to 124.1 °C
